Source: ChEMBL document CHEMBL1154203, “N-[(3S)-Pyrrolidin-3-yl]benzamides as novel dual serotonin and noradrenaline reuptake inhibitors: impact of small structural modifications on P-gp recognition and CNS penetration” (Bioorg Med Chem Lett, 2009)

Legend:
[1] = biological target: Sodium-dependent serotonin transporter (Homo sapiens, UniProt P31645); assay: biochemical
Description: Displacement of [3H]5HT from human 5HT transporter expressed in HEK293 cells by scintillation counting

[2] = biological target: Sodium-dependent noradrenaline transporter (Homo sapiens, UniProt P23975); assay: biochemical
Description: Displacement of [3H]noradrenaline from human NET receptor expressed in HEK293 cells by scintillation counting

[3] = biological target: Sodium-dependent dopamine transporter (Homo sapiens, UniProt Q01959); assay: biochemical
Description: Displacement of [3H]dopamine from human DAT receptor expressed in HEK293 cells by scintillation counting

[4] = biological target: Voltage-gated inwardly rectifying potassium channel KCNH2 (Homo sapiens, UniProt Q12809)
[5] = in vitro; settings: human, liver microsomes
Description: Intrinsic clearance in human liver microsomes

[6] = system: MDR1; assay: Permeability from apical to basolateral side of MDCK cells over expressing MDR1; type: ADME, cell-based, Canis lupus familiaris; settings: dog
[7] = system: MDR1; assay: Permeability from basolateral to apical side of MDCK cells over expressing MDR1; type: ADME, cell-based, Canis lupus familiaris; settings: dog
[8] = system: MDR1; assay: in vitro; settings: dog, MDCK-MDR1
Description: Efflux ratio of permeability from apical to basolateral over basolateral to apical side in MDCK cells over expressing MDR1

[9] = system: Plasma; assay: fCmax in Beagle dog plasma; type: ADME, organism-based, Canis lupus familiaris; settings: in vivo
[10] = organism: Canis familiaris; assay: Increase in peak urethral pressure in Beagle dog; type: functional, Canis lupus familiaris, Urethra
[11] = Binding affinity to sodium channel
[12] = Binding affinity to sigma opioid receptor
[13] = biological target: Kappa-type opioid receptor (Homo sapiens, UniProt P41145); assay: Binding affinity to kappa opioid receptor
[14] = Lipophilicity, log D at pH 7.4; type: physicochemical; settings: buffer
[15] = Dissociation constant, pKa of the compound; type: physicochemical
[16] = Intrinsic clearance in human hepatocytes measured per million cells; type: ADME, cell-based, Liver, Hepatocyte
[17] = biological target: Cytochrome P450 2D6 (Homo sapiens, UniProt P10635); assay: Inhibition of CYP2D6; type: ADME
[18] = biological target: T1, Cytochrome P450 1A2 (Homo sapiens, UniProt P05177); assay: Inhibition of CYP1A2; type: ADME
T1 sequence (P05177 whole entry): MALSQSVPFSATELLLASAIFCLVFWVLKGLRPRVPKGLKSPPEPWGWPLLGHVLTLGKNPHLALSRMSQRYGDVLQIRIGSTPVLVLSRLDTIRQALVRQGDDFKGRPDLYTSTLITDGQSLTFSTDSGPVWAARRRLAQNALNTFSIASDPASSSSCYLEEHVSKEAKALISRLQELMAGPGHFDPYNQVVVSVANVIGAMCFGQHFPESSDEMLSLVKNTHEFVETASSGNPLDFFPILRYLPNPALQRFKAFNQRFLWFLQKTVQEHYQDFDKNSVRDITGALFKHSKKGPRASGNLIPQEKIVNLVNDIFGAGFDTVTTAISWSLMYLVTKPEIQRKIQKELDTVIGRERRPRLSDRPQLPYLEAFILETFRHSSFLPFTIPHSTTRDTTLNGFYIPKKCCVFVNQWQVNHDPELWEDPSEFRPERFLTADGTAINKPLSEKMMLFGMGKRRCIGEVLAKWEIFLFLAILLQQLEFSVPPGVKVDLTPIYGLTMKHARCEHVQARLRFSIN

[19] = biological target: Cytochrome P450 2C9 (Homo sapiens, UniProt P11712); assay: Inhibition of CYP2C9; type: ADME
[20] = biological target: Cytochrome P450 2C19 (Homo sapiens, UniProt P33261); assay: Inhibition of CYP2C19; type: ADME
[21] = biological target: T2, Cytochrome P450 3A4 (Homo sapiens, UniProt P08684); assay: Inhibition of CYP3A4 using felodipine as a substrate; type: ADME
[22] = biological target: T2, Cytochrome P450 3A4; assay: Inhibition of CYP3A4 using midazolam as a substrate; type: ADME
[23] = biological target: T2, Cytochrome P450 3A4; assay: Inhibition of CYP3A4 using testosterone as a substrate; type: ADME
[24] = Apparent permeability from apical to basolateral side of human Caco-2 cells at 10 uM; type: ADME, cell-based
[25] = Apparent permeability from basolateral to apical side of human Caco-2 cells at 10 uM; type: ADME, cell-based
[26] = organism: Canis familiaris; assay: Toxicity in Beagle dog after 14 days; type: organism-based, Canis lupus familiaris; settings: in vivo, 336 h
[27] = organism: Rattus norvegicus; assay: Toxicity in rat after 14 days; type: organism-based; settings: in vivo, 336 h
[28] = system: Rattus norvegicus; assay: Toxicity in rat assessed as effect on locomotor activity at 15 mg/kg, po after 14 days; type: organism-based; parameters: dose 15 mg/kg, route oral; settings: in vivo, 336 h
[29] = Ratio of drug level from CSF to plasma in Beagle dog; type: ADME, Canis lupus familiaris

Voltage-gated inwardly rectifying potassium channel KCNH2, sequence (Q12809 whole entry): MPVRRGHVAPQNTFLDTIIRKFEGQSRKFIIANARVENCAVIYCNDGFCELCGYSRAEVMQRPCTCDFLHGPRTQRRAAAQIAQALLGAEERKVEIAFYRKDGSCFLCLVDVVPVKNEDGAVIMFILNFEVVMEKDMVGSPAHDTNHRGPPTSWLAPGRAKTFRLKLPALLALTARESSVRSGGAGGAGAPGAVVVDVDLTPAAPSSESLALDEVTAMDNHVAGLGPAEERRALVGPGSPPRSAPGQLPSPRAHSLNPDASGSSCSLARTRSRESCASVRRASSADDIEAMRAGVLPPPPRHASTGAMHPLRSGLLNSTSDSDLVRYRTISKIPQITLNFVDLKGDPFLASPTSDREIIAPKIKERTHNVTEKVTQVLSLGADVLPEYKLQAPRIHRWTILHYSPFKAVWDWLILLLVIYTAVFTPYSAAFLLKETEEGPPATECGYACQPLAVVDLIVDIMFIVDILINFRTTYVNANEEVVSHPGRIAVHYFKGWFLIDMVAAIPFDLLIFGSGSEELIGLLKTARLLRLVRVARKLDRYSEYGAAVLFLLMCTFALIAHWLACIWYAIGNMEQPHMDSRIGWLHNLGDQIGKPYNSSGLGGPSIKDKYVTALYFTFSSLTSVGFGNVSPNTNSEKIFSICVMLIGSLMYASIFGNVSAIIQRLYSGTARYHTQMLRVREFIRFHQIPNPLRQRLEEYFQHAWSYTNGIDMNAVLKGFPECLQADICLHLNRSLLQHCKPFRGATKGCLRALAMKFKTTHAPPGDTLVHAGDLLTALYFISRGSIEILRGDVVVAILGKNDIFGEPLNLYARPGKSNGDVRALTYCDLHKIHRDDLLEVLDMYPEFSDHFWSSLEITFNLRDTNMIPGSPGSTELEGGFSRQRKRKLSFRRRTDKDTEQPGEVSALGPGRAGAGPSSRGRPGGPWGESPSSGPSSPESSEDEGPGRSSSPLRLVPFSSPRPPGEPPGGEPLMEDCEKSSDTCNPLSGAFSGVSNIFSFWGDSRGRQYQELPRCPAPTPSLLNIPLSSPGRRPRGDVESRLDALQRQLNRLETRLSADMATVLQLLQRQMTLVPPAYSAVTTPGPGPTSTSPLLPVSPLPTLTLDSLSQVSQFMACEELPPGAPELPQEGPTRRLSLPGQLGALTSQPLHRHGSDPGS
Sodium-dependent serotonin transporter, sequence (P31645 whole entry): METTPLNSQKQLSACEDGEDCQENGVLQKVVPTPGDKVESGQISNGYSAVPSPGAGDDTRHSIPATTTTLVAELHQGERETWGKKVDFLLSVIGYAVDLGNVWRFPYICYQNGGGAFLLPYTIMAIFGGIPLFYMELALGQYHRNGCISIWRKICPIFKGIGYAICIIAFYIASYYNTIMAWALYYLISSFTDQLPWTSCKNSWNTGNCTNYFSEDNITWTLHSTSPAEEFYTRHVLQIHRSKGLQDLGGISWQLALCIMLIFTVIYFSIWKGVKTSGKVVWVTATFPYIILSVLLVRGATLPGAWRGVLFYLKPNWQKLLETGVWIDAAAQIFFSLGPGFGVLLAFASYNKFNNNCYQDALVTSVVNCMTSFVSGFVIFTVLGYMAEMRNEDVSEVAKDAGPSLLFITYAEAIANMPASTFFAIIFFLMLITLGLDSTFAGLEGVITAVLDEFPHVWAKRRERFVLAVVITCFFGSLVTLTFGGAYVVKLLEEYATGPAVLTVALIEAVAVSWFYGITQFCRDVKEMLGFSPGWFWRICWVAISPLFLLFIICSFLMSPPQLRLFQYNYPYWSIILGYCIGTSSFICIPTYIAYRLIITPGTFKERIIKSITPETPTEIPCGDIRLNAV
Sodium-dependent noradrenaline transporter, sequence (P23975 whole entry): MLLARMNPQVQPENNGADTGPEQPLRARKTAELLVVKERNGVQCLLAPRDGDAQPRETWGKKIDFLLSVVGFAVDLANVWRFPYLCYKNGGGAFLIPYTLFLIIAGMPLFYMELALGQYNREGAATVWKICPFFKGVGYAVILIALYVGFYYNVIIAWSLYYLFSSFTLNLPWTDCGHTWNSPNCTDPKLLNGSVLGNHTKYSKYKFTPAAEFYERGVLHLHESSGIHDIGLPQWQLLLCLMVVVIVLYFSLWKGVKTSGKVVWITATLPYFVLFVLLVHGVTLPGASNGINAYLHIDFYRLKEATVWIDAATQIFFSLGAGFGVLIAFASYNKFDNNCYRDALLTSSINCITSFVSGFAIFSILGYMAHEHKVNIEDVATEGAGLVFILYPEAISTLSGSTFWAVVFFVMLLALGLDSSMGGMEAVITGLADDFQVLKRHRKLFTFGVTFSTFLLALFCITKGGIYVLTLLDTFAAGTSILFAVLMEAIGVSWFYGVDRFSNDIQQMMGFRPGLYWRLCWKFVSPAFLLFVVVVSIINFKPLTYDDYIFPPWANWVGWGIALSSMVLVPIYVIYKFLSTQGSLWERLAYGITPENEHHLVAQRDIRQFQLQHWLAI
T2 sequence (P08684 whole entry): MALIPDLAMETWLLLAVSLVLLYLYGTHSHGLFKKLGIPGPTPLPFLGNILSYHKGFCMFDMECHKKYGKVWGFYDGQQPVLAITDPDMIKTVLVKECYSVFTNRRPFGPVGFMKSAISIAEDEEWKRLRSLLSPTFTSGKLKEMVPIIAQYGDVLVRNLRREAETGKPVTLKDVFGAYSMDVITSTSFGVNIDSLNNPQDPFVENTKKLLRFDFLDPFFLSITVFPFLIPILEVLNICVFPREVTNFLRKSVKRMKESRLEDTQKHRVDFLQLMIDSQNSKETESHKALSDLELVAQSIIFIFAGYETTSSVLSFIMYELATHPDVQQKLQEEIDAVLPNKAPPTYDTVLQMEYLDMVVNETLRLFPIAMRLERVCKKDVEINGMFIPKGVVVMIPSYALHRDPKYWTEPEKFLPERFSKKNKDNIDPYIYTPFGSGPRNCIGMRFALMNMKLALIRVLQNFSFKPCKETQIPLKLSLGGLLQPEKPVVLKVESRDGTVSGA
Sodium-dependent dopamine transporter, sequence (Q01959 whole entry): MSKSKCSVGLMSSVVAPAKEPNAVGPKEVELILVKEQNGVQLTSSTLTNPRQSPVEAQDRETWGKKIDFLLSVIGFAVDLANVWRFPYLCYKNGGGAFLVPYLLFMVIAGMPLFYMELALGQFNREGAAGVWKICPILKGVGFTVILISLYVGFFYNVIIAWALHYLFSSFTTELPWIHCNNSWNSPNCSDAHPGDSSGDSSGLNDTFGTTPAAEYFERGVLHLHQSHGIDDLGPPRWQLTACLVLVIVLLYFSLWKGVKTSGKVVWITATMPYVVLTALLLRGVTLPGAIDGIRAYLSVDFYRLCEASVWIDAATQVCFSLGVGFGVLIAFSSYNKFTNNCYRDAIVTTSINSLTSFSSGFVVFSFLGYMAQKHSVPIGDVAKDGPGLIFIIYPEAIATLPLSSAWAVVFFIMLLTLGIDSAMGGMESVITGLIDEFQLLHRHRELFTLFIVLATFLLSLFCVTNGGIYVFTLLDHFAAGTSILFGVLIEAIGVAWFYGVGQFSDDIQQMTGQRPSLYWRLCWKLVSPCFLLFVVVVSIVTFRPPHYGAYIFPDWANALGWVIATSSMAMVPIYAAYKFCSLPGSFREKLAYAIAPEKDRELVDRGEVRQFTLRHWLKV
Cytochrome P450 2C19, sequence (P33261 whole entry): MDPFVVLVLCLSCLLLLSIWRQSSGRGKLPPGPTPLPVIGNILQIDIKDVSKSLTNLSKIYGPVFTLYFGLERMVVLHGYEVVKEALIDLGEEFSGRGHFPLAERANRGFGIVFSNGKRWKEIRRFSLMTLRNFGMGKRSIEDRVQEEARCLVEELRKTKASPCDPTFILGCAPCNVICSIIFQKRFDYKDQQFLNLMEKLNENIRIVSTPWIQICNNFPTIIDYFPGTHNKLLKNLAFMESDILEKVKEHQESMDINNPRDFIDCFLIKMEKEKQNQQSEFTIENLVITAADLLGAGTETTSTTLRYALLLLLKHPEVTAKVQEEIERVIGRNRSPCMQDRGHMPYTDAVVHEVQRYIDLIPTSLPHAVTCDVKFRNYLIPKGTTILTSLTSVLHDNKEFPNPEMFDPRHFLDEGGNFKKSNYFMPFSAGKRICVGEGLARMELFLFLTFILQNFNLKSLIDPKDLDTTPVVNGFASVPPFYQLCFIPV
Cytochrome P450 2D6, sequence (P10635 whole entry): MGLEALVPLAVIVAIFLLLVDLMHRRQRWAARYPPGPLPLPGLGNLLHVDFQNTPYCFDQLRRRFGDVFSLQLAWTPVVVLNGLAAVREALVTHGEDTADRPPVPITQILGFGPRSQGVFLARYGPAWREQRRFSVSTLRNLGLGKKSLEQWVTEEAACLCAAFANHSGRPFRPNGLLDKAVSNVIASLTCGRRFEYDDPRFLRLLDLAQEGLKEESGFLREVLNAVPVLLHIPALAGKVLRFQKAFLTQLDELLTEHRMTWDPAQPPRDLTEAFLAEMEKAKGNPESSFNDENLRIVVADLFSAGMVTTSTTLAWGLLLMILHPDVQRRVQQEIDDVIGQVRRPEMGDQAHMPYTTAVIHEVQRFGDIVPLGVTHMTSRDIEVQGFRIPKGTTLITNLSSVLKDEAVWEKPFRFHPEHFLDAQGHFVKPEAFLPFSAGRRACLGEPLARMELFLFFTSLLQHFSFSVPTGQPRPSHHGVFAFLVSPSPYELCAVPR
Cytochrome P450 2C9, sequence (P11712 whole entry): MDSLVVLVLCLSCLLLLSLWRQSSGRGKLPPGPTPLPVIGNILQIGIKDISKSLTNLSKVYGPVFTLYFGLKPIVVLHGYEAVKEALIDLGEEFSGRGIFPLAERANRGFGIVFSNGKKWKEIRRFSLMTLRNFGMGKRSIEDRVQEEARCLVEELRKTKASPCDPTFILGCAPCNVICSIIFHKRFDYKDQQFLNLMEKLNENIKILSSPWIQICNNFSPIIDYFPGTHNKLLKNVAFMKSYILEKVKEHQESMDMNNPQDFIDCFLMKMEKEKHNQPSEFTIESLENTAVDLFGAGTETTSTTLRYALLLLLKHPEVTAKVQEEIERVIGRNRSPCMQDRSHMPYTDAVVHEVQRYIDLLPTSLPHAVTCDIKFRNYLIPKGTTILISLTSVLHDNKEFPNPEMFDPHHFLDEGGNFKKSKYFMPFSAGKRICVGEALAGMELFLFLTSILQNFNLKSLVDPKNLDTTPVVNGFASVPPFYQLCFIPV

With `CC(C)CN(C(=O)c1cccc(C(F)(F)F)c1Cl)[C@H]1CCNC1` the Ki [1] was 11 nM, the Ki [2] was 103 nM and the Ki [3] was 2070 nM.
Work on `CC(C)CN(C(=O)c1cc(Cl)ccc1Cl)[C@H]1CCNC1` yielded an IC50 [4] of 19800 nM, a microsomal CLint [5] of 29 µL/min/mg and a Ki [1] of 54 nM. The Ki [2] was 198 nM and the Ki [3] was 2430 nM.
In the case of `CC(C)CN(C(=O)c1cccc(Cl)c1F)[C@H]1CCNC1`, the IC50 [4] is reported as over 10000 nM, the microsomal CLint [5] is reported as 26 µL/min/mg and the Ki [1] is reported as 10 nM. For the same compound, the Ki [2] was 139 nM and the Ki [3] was 2560 nM.
In the case of `CC(C)CN(C(=O)c1cccc(F)c1C(F)(F)F)[C@H]1CCNC1`, the IC50 [4] is reported as over 10000 nM, the Ki [1] is reported as 25 nM and the Ki [2] is reported as 26 nM.
`CC(C)CN(C(=O)c1ccc(F)cc1Cl)[C@H]1CCNC1` gave a microsomal CLint [5] of 20 µL/min/mg, a Ki [1] of 7 nM and a Ki [2] of 263 nM. It also gave a Ki [3] of 2540 nM.
In the case of `Cc1c(Cl)cccc1C(=O)N(CC(C)C)[C@H]1CCNC1`, the IC50 [4] is reported as 52400 nM, the microsomal CLint [5] is reported as 26 µL/min/mg and the Ki [1] is reported as 3 nM. For the same compound, the Ki [2] was 29 nM and the Ki [3] was 516 nM.
`Cc1c(F)cccc1C(=O)N(CC(C)C)[C@H]1CCNC1` showed a microsomal CLint [5] of 21 µL/min/mg, a Ki [1] of 13 nM and a Ki [2] of 69 nM. For the same compound, the Ki [3] was 1610 nM.
Work on `CC(C)CN(C(=O)c1cccc(F)c1Cl)[C@H]1CCNC1` yielded a microsomal CLint [5] of 20 µL/min/mg, a Ki [1] of 15 nM and a Ki [2] of 67 nM. It also gave a Ki [3] of 2370 nM.
In the case of `CC(C)CN(C(=O)c1ccccc1C(C)C)[C@H]1CCNC1`, the IC50 [4] is reported as 12900 nM, the microsomal CLint [5] is reported as under 7 µL/min/mg and the Ki [1] is reported as 1320 nM. For the same compound, the Ki [2] was 65 nM and the Ki [3] was 3590 nM.
With `CC(C)CN(C(=O)c1cccc(Cl)c1Cl)[C@@H]1CCNC1` the Ki [1] was 13 nM, the Ki [2] was 169 nM and the Ki [3] was 3090 nM.
In the case of `CCN(C(=O)c1cccc(Cl)c1Cl)[C@H]1CCNC1`, the IC50 [4] is reported as over 20000 nM, the microsomal CLint [5] is reported as under 13 µL/min/mg and the Ki [1] is reported as 29 nM. For the same compound, the Ki [2] was 217 nM and the Ki [3] was 1090 nM.
`CC(C)CN(C(=O)c1cc(Cl)cc(Cl)c1)[C@H]1CCNC1` showed an IC50 [4] of over 10000 nM, a Ki [1] of 6 nM and a Ki [2] of 43 nM. For the same compound, the Ki [3] was 3070 nM.
Compound `CC(C)CN(C(=O)c1ccc(Cl)c(Cl)c1)[C@H]1CCNC1` has a microsomal CLint [5] of 36 µL/min/mg, a Ki [1] of 4 nM and a Ki [2] of 50 nM. For the same compound, the Ki [3] was 430 nM.
`CC(C)CN(C(=O)c1cccc(Cl)c1)[C@H]1CCNC1` showed a microsomal CLint [5] of 23.5 µL/min/mg, a Ki [1] of 19 nM and a Ki [2] of 135 nM. For the same compound, the Ki [3] was 1330 nM.
For `O=C(c1cccc(Cl)c1Cl)N(C1=CCOC=C1)[C@H]1CCNC1`, the Papp A→B [6] was 1 ×10⁻⁶ cm/s, the Papp B→A [7] was 20 ×10⁻⁶ cm/s and the IC50 [4] was over 40000 nM. For the same compound, the microsomal CLint [5] was 13 µL/min/mg, the efflux ratio [8] was 20 and the Ki [1] was 6 nM. For the same compound, the Ki [2] was 10 nM and the Ki [3] was 945 nM.
For `O=C(c1cccc(Cl)c1Cl)N(c1ccccc1)[C@H]1CCNC1`, the IC50 [4] was 7920 nM, the microsomal CLint [5] was under 25 µL/min/mg and the Ki [1] was 3 nM. It also gave a Ki [2] of 11 nM and a Ki [3] of 501 nM.
`CC(C)CN(C(=O)c1ccc(Cl)cc1Cl)[C@H]1CCNC1` showed a microsomal CLint [5] of 26 µL/min/mg, a Ki [1] of 3 nM and a Ki [2] of 37 nM. For the same compound, the Ki [3] was 2400 nM.
`CCCN(C(=O)c1cccc(Cl)c1Cl)[C@H]1CCNC1` showed an IC50 [4] of over 18600 nM, a microsomal CLint [5] of under 7 µL/min/mg and a Ki [1] of 16 nM. It also gave a Ki [2] of 36 nM and a Ki [3] of 630 nM.
Compound `CC(C)CN(C(=O)c1cccc(Cl)c1Cl)[C@H]1CCNC1` has a fCmax [9] of 5 nM, an Activity [10] of 35% and a Papp A→B [6] of 16 ×10⁻⁶ cm/s. The Papp B→A [7] was 43 ×10⁻⁶ cm/s, the IC50 [11] was 3600 nM and the IC50 [12] was 5100 nM. It also gave an IC50 [13] of 5800 nM, a logD [14] of 0.6 and a pKa [15] of 10. For the same compound, the hepatocyte CLint [16] was 3 µL/min/1e6 cells, the IC50 [17] was over 30000 nM and the IC50 [18] was over 30000 nM. It also gave an IC50 [19] of over 30000 nM, an IC50 [20] of over 30000 nM and an IC50 [21] of over 30000 nM. It also gave an IC50 [22] of over 30000 nM, an IC50 [23] of over 30000 nM and a Papp A→B at 10 µM [24] of 12 ×10⁻⁶ cm/s. The Papp B→A at 10 µM [25] was 26 ×10⁻⁶ cm/s, the Activity [26] was “Non-toxic” and the Activity [27] was “Non-toxic”. For the same compound, the Activity [28] was “Non-toxic”, the IC50 [4] was 20000 nM and the microsomal CLint [5] was 11 µL/min/mg. The efflux ratio [8] was 2.7, the Ki [1] was 6 nM and the Ki [2] was 21 nM. It also gave a Ki [3] of 544 nM.
`O=C(c1cccc(Cl)c1Cl)N(CC(F)(F)F)[C@H]1CCNC1` showed a microsomal CLint [5] of under 8 µL/min/mg, a Ki [1] of 39 nM and a Ki [2] of 95 nM. The Ki [3] was 3730 nM.
`O=C(c1cccc(Cl)c1Cl)N(CCC1CC1)[C@H]1CCNC1` showed an IC50 [4] of 7140 nM, a microsomal CLint [5] of 26 µL/min/mg and a Ki [1] of 15 nM. For the same compound, the Ki [2] was 24 nM and the Ki [3] was 404 nM.
In the case of `CC(C)(C)CN(C(=O)c1cccc(Cl)c1Cl)[C@H]1CCNC1`, the Ki [1] is reported as 4 nM, the Ki [2] is reported as 13 nM and the Ki [3] is reported as 273 nM.
In the case of `O=C(c1cccc(Cl)c1Cl)N(C1CCCC1)[C@H]1CCNC1`, the Papp A→B [6] is reported as 10 ×10⁻⁶ cm/s, the Papp B→A [7] is reported as 64 ×10⁻⁶ cm/s and the microsomal CLint [5] is reported as under 7 µL/min/mg. The Ki [1] was 6 nM, the Ki [2] was 11 nM and the Ki [3] was 983 nM.
`CCC(CC)N(C(=O)c1cccc(Cl)c1Cl)[C@H]1CCNC1` gave an IC50 [4] of 7740 nM, a microsomal CLint [5] of 34 µL/min/mg and a Ki [1] of 20 nM. For the same compound, the Ki [2] was 37 nM and the Ki [3] was 2600 nM.
`CC(C)C(=O)N(Cc1cccc(Cl)c1Cl)[C@H]1CCNC1` gave a Papp A→B [6] of 15 ×10⁻⁶ cm/s, a Papp B→A [7] of 64 ×10⁻⁶ cm/s and a Kp [29] of 0.1. It also gave a microsomal CLint [5] of under 7.6 µL/min/mg, an efflux ratio [8] of 4.3 and a Ki [1] of 9 nM. It also gave a Ki [2] of 52 nM and a Ki [3] of 640 nM.
